# According to patent publication US6057357A, “Peripherally selective kappa opioid agonists” (Warner-Lambert Company, priority 1999, dated 2000):
# How the values were obtained:
# Swiss male mice [1] = assay: Rotarod Test in Mice (ataxic reaction); type: in vivo, mouse; details: subcutaneous, t=-30 min; ED50 of 10 mg/kg
# Protocol: (§1) Swiss male mice (IFFA-CREDO) at 22±3 grams on the test day.
# (§2) Room temperature: 21.2±0.2° C.
# (§3) Rotarod (Ugobasile) at 18 rotations per minute.
# (§4) t=-180 minutes and t=-120 minutes: mice trained to stay on the bar at least 120 seconds before falling off.
# (§5) t=-30 minutes: Subcutaneous administration of drug at 1 mL/100 g body weight as either solution in distilled water or suspension in an aqueous solution of hydroxypropylmethylcellulose 0.2% (v/v).
# (§6) t=0 minutes: Ataxic reaction: time taken for mouse to fall off the rotarod (maximum time 120 seconds).
# (§7) Results: Mean±sem per group
# (§8) Dunnett's test after analysis of variance (Anova one way).
# [2] = Rotarod Test in Mice (ataxic reaction); type: in vivo, mouse; details: mouse, rotarod, sc; subcutaneous, t=-30 min
# Protocol: as §1, §2, §3, §4, §5, §6, §7, §8
# Swiss male mice [3] = assay: Formalin Test in Mice: Late Phase; type: in vivo; details: Mus musculus, sc, subcutaneous, t=-10 min before formalin 5%
# Protocol: Formalin Test in Mice: Late Phase
# Swiss male mice (IFFA-CREDO) at 22±3 grams on test day.
# Room temperature: 24.5<T<24.8° C.
# t=-10 minutes. Subcutaneous administration of drug at 1 mL/100 g body weight. Either as a solution in distilled water or suspension in an aqueous solution of hydroxypropylmethylcellulose 0.2% (v/v).
# t=0 minutes. Formalin 5% in sterile saline (v/v) administered by intraplanatar injection (20 μL) into the left paw.
# t=+15 minutes. Mouse placed in cylinder.
# t=+25 minutes. Nociceptive reaction: number of times left paw is licked during the observation period.
# as §7, §8
# Reference: S. Hunskaar, Journal of Neuroscience Methods, 1985;14:69-76.
SMILES,Mouse Rotarod percent effect (in parentheses beside ED50) (Swiss male mice [1]) [%],ED50 at 0.5 h [2] [mg/kg],ED50 (Swiss male mice [3]) [mg/kg]
"CN(C(=O)Cc1cc2ccccc2o1)[C@H](CN1CCCC1)c1cccc(OCC(=O)O)c1 [Compound 15, (S)-(3-{1-[(Benzofuran-2-yl-acetyl)-methyl-amino]-2-pyrrolidin-1-yl-ethyl}-phenoxy)-acetic acid]",0,> 10,2.95
"CN(C(=O)Cc1coc2ccccc12)[C@H](CN1CCCC1)c1cccc(OCC(=O)O)c1 [Compound 19, (S)-(3-{1-[(Benzofuran-3-yl-acetyl)-methyl-amino]-2-pyrrolidin-1-yl-ethyl}-phenoxy)-acetic acid]",0,> 10,1.17
CN(C(=O)Cc1ccc(S(C)(=O)=O)cc1)[C@H](CN1CCCC1)c1cccc(OCC(=O)O)c1 [Compound 23],,,6.1
"CN(C(=O)Cc1coc2ccccc12)[C@H](CN1CC[C@H](O)C1)c1cccc(OCC(=O)O)c1 [Compound 28, [S-(R*,R*)]-{3-[1-[(Benzofuran-3-yl-acetyl)-methyl-amino]-2-(3-hydroxy-pyrrolidin-1-yl)-ethyl]-phenoxy}-acetic acid]",53,~10,0.36
"CN(C(=O)Cc1cc2ccccc2o1)[C@H](CN1CC[C@H](O)C1)c1cccc(OCC(=O)O)c1 [Compound 33, [S-(R*,R*)]-{3-[1-[(Benzofuran-2-yl-acetyl)-methyl-amino]-2-(3-hydroxy-pyrrolidin-1-yl)-ethyl]-phenoxy}-acetic acid]",53,~10,0.19
CN(C(=O)Cc1cccc2occc12)[C@H](CN1CC[C@H](O)C1)c1cccc(OCC(=O)O)c1 [Compound 38],0,> 10,0.95
CN(C(=O)Cc1ccc(S(C)(=O)=O)cc1)[C@H](CN1CC[C@H](O)C1)c1cccc(OCC(=O)O)c1 [Compound 43],0,> 10,0.51
